Data on 30 compounds can be found in patent US20240287079A1, “6-AMINOPYRAZOLOPYRIMIDINE COMPOUND AND PHARMACEUTICAL USE THEREOF” (Japan Tobacco Inc., priority 2021, published 2024).

The target in the test is NLRP3 inflammasome (Homo sapiens (Human), UniProt Q96P20). The experiment in a line: Evaluation of NLRP3 inflammasome inhibitory activity (inhibition of IL-1β production in LPS/Nigericin-stimulated THP1-Null cells). In kind it is cell-based. To be noted: IL-1β production in THP1-Null cells, PMA, LPS 1 μg/mL, Nigericin 7.5 μmol/L, AlphaLISA. The method, then: The NLRP3 inflammasome inhibitory activity of test compounds were evaluated on the basis of the inhibitory activity of the IL-1β production in THP1-Null cells (Product Number: thp-null, InvivoGen). […] The supernatant of the culture was removed, and thereto was added media for assay (25 μL/well) containing 1 μg/mL Lipopolysaccharides (Product Number: L2654, Sigma-Aldrich (registered trademark)). […] The supernatant of the culture was removed. […] A solution containing a test compound (20 μL/well) was added to test compound-setting wells. […] The supernatant of the culture was cryonically stored (set at −20° C.) until measurement of IL-1β.
Chain of NLRP3 inflammasome (Q96P20 whole entry): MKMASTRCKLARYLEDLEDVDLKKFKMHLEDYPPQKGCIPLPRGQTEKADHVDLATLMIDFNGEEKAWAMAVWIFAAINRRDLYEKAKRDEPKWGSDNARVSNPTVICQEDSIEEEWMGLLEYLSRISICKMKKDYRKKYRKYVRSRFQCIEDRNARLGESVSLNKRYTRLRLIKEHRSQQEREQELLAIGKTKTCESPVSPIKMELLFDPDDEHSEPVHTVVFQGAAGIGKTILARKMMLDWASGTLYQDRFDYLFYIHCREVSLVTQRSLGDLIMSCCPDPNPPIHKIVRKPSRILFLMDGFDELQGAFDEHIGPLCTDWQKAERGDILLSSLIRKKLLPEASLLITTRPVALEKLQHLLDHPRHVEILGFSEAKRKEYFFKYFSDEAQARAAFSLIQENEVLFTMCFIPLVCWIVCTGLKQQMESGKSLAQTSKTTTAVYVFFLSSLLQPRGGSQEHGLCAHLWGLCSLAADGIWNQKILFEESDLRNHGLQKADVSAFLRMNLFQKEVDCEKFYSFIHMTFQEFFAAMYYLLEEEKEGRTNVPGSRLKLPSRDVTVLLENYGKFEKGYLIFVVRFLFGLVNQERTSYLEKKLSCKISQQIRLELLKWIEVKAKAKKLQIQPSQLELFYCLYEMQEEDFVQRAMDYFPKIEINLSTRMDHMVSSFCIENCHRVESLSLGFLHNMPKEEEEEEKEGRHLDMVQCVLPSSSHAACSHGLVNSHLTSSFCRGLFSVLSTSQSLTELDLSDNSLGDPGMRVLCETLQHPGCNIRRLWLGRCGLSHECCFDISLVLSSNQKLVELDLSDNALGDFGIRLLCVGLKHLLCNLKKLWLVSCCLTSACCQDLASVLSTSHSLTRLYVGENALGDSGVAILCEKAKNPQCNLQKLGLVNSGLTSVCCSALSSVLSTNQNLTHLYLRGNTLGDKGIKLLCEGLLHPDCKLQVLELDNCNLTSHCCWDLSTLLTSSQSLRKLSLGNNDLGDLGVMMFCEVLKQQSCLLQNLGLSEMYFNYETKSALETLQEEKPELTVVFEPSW
The amount of IL-1β in the culture supernatant was quantitated with AlphaLISA(registered trademark) Human IL-1β Detection Kit (Product Number: AL220C, Perkin Elmer). Fluorescence intensity was measured with a microplate reader EnSpier (Model number: 2300-00J, Perkin Elmer) or EnSight(Model number: HH34000000, Perkin Elmer) according to procedure manuals attached thereto. Inhibition rates of the test compound-setting wells were calculated on the basis of 100% for the blank-setting wells and 0% for the control-setting wells.
On the technique in general: In Alpha technology, singlet oxygen from a donor bead excites a nearby acceptor bead.
Take `Cc1cc(C2CC2)cc(F)c1-n1cc2c(=O)[nH]c(N3CCOCC3)nc2n1` [Example 255]: the IC50 (usually the concentration needed to halve the response being measured) was determined as 6.2 nM.

The compound `Cc1cc(Br)cc(C)c1-n1cc2c(=O)n(C)c(N3CC4CC(C3)O4)nc2n1` [Example 310] returned a half-inhibitory concentration (IC50) of 450 nM.

`Cc1cc(Br)cc(C)c1-n1cc2c(=O)[nH]c(N3CCOCC3=O)nc2n1` [Example 353]: the IC50 worked out at 76 nM.

In turn, `Cn1c(N2CC3CC(C2)O3)nc2nn(-c3ccc(C4CC4)cc3C(F)(F)F)cc2c1=O` [Example 313] registered an IC50 of 240 nM.

Turning to `Cc1ccc(C(F)(F)F)c(-n2cc3c(=O)[nH]c(N4CCOCC4)nc3n2)c1` [Example 341], the IC50 turned out to be 270 nM.

Compound `Cc1cc(C2CC2)cc(F)c1-n1cc2c(=O)[nH]c(N3C[C@H]4C[C@@H]3CO4)nc2n1` [Example 299] showed an IC50 of 17 nM.

`Cc1cc(Br)cc(F)c1-n1cc2c(=O)[nH]c(N3CCOCC3)nc2n1` [Example 254] had a half-maximal inhibitory concentration (IC50) of 14 nM.

The compound `Cc1cc(Br)cc(C)c1-n1cc2c(=O)[nH]c(N3CC4CC3C4)nc2n1` (racemic) [Example 217] yielded a half-inhibitory concentration (IC50) of 7.1 nM.

Take `CCc1cc(C)c(-n2cc3c(=O)[nH]c(N4CCOCC4)nc3n2)c(C)c1` [Example 292]: the IC50 is 28 nM.

`Cc1cc(C)c(-n2cc3c(=O)[nH]c(N4CCN(C(=O)OC(C)(C)C)CC4)nc3n2)c(C)c1` [Example 101] had an IC50 of 5.6 nM.

Consider `Cc1ccccc1-n1cc2c(=O)[nH]c(N3CCC(F)(F)C3)nc2n1` [Example 12], for which the IC50 was 380 nM.

`Cc1cc(CC(F)F)cc(C)c1-n1cc2c(=O)[nH]c(N3CCOCCO3)nc2n1` [Example 358] displayed an IC50 of 800 nM.

In turn, `Cc1cc(C)cc(-n2cc3c(=O)[nH]c(N4CCCC4)nc3n2)c1` [Example 64] showed an IC50 of 290 nM.

For the compound `O=c1[nH]c(N2CCCC2)nc2nn(-c3ccc(Cl)cc3Cl)cc12` [Example 127], 13 nM corresponded to half-maximal inhibition (IC50).

In turn, `Cc1cc(C2CC2)cc(C)c1-n1cc2c(=O)[nH]c(N3CCCOCC3)nc2n1` [Example 326] gave an IC50 of 7.5 nM.

`Cc1cc(Br)cc(C)c1-n1cc2c(=O)[nH]c(N3CCC(F)(F)C3)nc2n1` [Example 283] showed an IC50 of 7.1 nM.

`O=c1[nH]c(N2CCOCC2)nc2nn(-c3ccc(C4CC4)cc3C(F)(F)F)cc12` [Example 177] gave a half-maximal inhibitory concentration (IC50) of 5.6 nM.

Take `CNc1nc2nn(-c3c(C)cc(Br)cc3C)cc2c(=O)[nH]1` [Example 185]: the midpoint of inhibition, the IC50, lay at 5.6 nM.

With `Cc1cc(C2CC2)cc(C(F)(F)F)c1-n1cc2c(=O)[nH]c(N3CCOCC3)nc2n1` [Example 175], the IC50 was found to be 13 nM.

`COCC1CN(c2nc3nn(-c4ccc(Br)cc4C)cc3c(=O)[nH]2)CCO1` (racemic) [Example 72] displayed an IC50 of 52 nM.

Regarding `O=c1[nH]c(N2CCOCC2)nc2nn(-c3ccc(Br)cc3OC3CCC3)cc12` [Example 305], the IC50 worked out at 48 nM.

Compound `CCCN(C)c1nc2nn(-c3ccccc3C)cc2c(=O)[nH]1` [Example 18] registered an IC50 of 12000 nM.

`Cc1ccccc1-n1cc2c(=O)[nH]c(N3CCOCC3)nc2n1` [Example 5]: half-maximal inhibition (IC50) was put at 1400 nM.

`CCC(C)n1nc(C)c(-n2cc3c(=O)[nH]c(N4CCCC4)nc3n2)c1C` (racemic) [Example 347] returned a concentration for half-maximal inhibition (IC50) of 920 nM.

As to `O=c1[nH]c(N2CCCC2)nc2nn(-c3ccccc3)cc12` [Example 2], it took 8900 nM to reach half-maximal inhibition (IC50).

Consider `Cc1cc(C2CC2)cc(C)c1-n1cc2c(=O)[nH]c(N3CCCC3)nc2n1` [Example 286], for which the IC50 is 4.2 nM.

As for `COc1cc(C)c(-n2cc3c(=O)[nH]c(N4CCCC4)nc3n2)c(C)c1` [Example 345], it took 16 nM to reach half-maximal inhibition (IC50).

With `COC1CCN(c2nc3nn(-c4c(C)cc(C)cc4C)cc3c(=O)[nH]2)C1` (racemic) [Example 93], the IC50 was determined as 9.1 nM.

`O=c1[nH]c(N2C[C@@H]3C[C@H]2CO3)nc2nn(-c3ccc(C4CC4)cc3C(F)(F)F)cc12` [Example 263] gave an IC50 of 8.6 nM.

In the case of `COC[C@H]1CCCN1c1nc2nn(-c3ccccc3C)cc2c(=O)[nH]1` [Example 41], half-maximal inhibition (IC50) required 4100 nM.
